Source: patent US20220281848A1, “PYRAZOLE-SUBSTITUTED PYRROLIDINONES AS HERBICIDES” (FMC Corporation, priority 2019, published 2022)

Assays:
Format in all cases: in vivo
plants = assay: Test D post-emergence, other plants of Tables D2 and D4; settings: post-emergence
Method in brief: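 Seeds treated with herbicide safener; sown in soil; glasshouse, 16 h light, 65% humidity. Sprayed day 1 (pre) or ~day 12 (post). Spray in 0.2% v/v adjuvant. Scored 0–100 damage: 20 DAA pre, 15 d post.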

corn (Zea mays, ZEAMX) = assay: Test A post-emergence, corn; settings: after 13 d
Method in brief: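 Foliar application to 8-day-old seedlings at 15.625, 62.5 or 250 g/ha; phytotoxicity scored 0–100 after 13 d.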

[1] = tested on: redroot pigweed (Amaranthus retroflexus, AMARE); assay: Test A pre-emergence, redroot pigweed; settings: after 13 d
Method in brief: (§1)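 Values are percent plant damage 13 d after a pre-emergence spray (15.625, 62.5 or 250 g/ha; acetone/water with 0.5% Tween 20) applied to pots one day post-sowing, under glasshouse conditions of 24/16° C. and twice-daily watering.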

[2] = tested on: barnyardgrass (Echinochloa crus-galli, ECHCG); assay: Test A pre-emergence, barnyardgrass; settings: after 13 d
Method in brief: as §1

CN1CC(c2cc(C(F)(F)F)n(C)n2)C(C(=O)Nc2cccc(F)n2)C1=O (racemic) [Compound 24]
damage to plant (100=total damage to plant; 0=no damage to plant), AMARE (plants; rate 130, evaluated after 15 d): 0
damage to plant (100=total damage to plant; 0=no damage to plant), AMARE (plants; rate 250, evaluated after 15 d): 0
damage to plant (100=total damage to plant; 0=no damage to plant), AMARE (plants; rate 500, evaluated after 15 d): 0
damage to plant (100=total damage to plant; 0=no damage to plant), BIDPI (plants; rate 130, evaluated after 15 d): 0
damage to plant (100=total damage to plant; 0=no damage to plant), BIDPI (plants; rate 250, evaluated after 15 d): 0
damage to plant (100=total damage to plant; 0=no damage to plant), BIDPI (plants; rate 500, evaluated after 15 d): 0
damage to plant (100=total damage to plant; 0=no damage to plant), BRAPL (plants; rate 130, evaluated after 15 d): 0
damage to plant (100=total damage to plant; 0=no damage to plant), BRAPL (plants; rate 250, evaluated after 15 d): 40
damage to plant (100=total damage to plant; 0=no damage to plant), BRAPL (plants; rate 500, evaluated after 15 d): 50
damage to plant (100=total damage to plant; 0=no damage to plant), CYPES (plants; rate 130, evaluated after 15 d): 0
damage to plant (100=total damage to plant; 0=no damage to plant), CYPES (plants; rate 250, evaluated after 15 d): 0
damage to plant (100=total damage to plant; 0=no damage to plant), CYPES (plants; rate 500, evaluated after 15 d): 10
damage to plant (100=total damage to plant; 0=no damage to plant), DIGSA (plants; rate 130, evaluated after 15 d): 0
damage to plant (100=total damage to plant; 0=no damage to plant), DIGSA (plants; rate 250, evaluated after 15 d): 0
damage to plant (100=total damage to plant; 0=no damage to plant), DIGSA (plants; rate 500, evaluated after 15 d): 0
damage to plant (100=total damage to plant; 0=no damage to plant), ECHCG (plants; rate 130, evaluated after 15 d): 0
damage to plant (100=total damage to plant; 0=no damage to plant), ECHCG (plants; rate 250, evaluated after 15 d): 0
damage to plant (100=total damage to plant; 0=no damage to plant), ECHCG (plants; rate 500, evaluated after 15 d): 0
damage to plant (100=total damage to plant; 0=no damage to plant), ELEIN (plants; rate 130, evaluated after 15 d): 0
damage to plant (100=total damage to plant; 0=no damage to plant), ELEIN (plants; rate 250, evaluated after 15 d): 0
damage to plant (100=total damage to plant; 0=no damage to plant), ELEIN (plants; rate 500, evaluated after 15 d): 0
damage to plant (100=total damage to plant; 0=no damage to plant), EPHHL (plants; rate 130, evaluated after 15 d): 0
damage to plant (100=total damage to plant; 0=no damage to plant), EPHHL (plants; rate 250, evaluated after 15 d): 0
damage to plant (100=total damage to plant; 0=no damage to plant), EPHHL (plants; rate 500, evaluated after 15 d): 20
damage to plant (100=total damage to plant; 0=no damage to plant), GLXMA (plants; rate 130, evaluated after 15 d): 0
damage to plant (100=total damage to plant; 0=no damage to plant), GLXMA (plants; rate 250, evaluated after 15 d): 0
damage to plant (100=total damage to plant; 0=no damage to plant), GLXMA (plants; rate 500, evaluated after 15 d): 10
damage to plant (100=total damage to plant; 0=no damage to plant), IPOHE (plants; rate 130, evaluated after 15 d): 0
damage to plant (100=total damage to plant; 0=no damage to plant), IPOHE (plants; rate 250, evaluated after 15 d): 0
damage to plant (100=total damage to plant; 0=no damage to plant), IPOHE (plants; rate 500, evaluated after 15 d): 10
damage to plant (100=total damage to plant; 0=no damage to plant), ORYSA (plants; rate 130, evaluated after 15 d): 0
damage to plant (100=total damage to plant; 0=no damage to plant), ORYSA (plants; rate 250, evaluated after 15 d): 0
damage to plant (100=total damage to plant; 0=no damage to plant), ORYSA (plants; rate 500, evaluated after 15 d): 10
damage to plant (100=total damage to plant; 0=no damage to plant), PANMI (plants; rate 130, evaluated after 15 d): 0
damage to plant (100=total damage to plant; 0=no damage to plant), PANMI (plants; rate 250, evaluated after 15 d): 0
damage to plant (100=total damage to plant; 0=no damage to plant), PANMI (plants; rate 500, evaluated after 15 d): 10
damage to plant (100=total damage to plant; 0=no damage to plant), SETFA (plants; rate 130, evaluated after 15 d): 0
damage to plant (100=total damage to plant; 0=no damage to plant), SETFA (plants; rate 250, evaluated after 15 d): 0
damage to plant (100=total damage to plant; 0=no damage to plant), SETFA (plants; rate 500, evaluated after 15 d): 10
damage to plant (100=total damage to plant; 0=no damage to plant), SORVU (plants; rate 130, evaluated after 15 d): 0
damage to plant (100=total damage to plant; 0=no damage to plant), SORVU (plants; rate 250, evaluated after 15 d): 0
damage to plant (100=total damage to plant; 0=no damage to plant), SORVU (plants; rate 500, evaluated after 15 d): 0
damage to plant (100=total damage; 0=no damage) ZEAMX (corn (Zea mays, ZEAMX); Post-Emergence at 15.625 g/ha): 0
damage to plant (100=total damage; 0=no damage) ZEAMX (corn (Zea mays, ZEAMX); Post-Emergence at 62.5 g/ha): 10
damage to plant (100=total damage; 0=no damage) ZEAMX (corn (Zea mays, ZEAMX); Post-Emergence at 250 g/ha): 40
damage to plant (100=total damage; 0=no damage) AMARE ([1]; Pre-Emergence at 15.625 g/ha): 0
damage to plant (100=total damage; 0=no damage) AMARE ([1]; Pre-Emergence at 62.5 g/ha): 0
damage to plant (100=total damage; 0=no damage) AMARE ([1]; Pre-Emergence at 250 g/ha): 0
damage to plant (100=total damage; 0=no damage) ECHCG ([2]; Pre-Emergence at 15.625 g/ha): 90
damage to plant (100=total damage; 0=no damage) ECHCG ([2]; Pre-Emergence at 62.5 g/ha): 100
damage to plant (100=total damage; 0=no damage) ECHCG ([2]; Pre-Emergence at 250 g/ha): 100
